{
  "source": "patent US20160151403A1",
  "about": "“SMALL MOLECULE MODULATORS OF P53 FAMILY SIGNALING” (The Trustees of the University of Pennsylvania, priority 2006, published 2016)",
  "key": {"[1]": {"system": "p53 protein expression in HCT116 cells", "assay": "Western blot of p53 protein in parental HCT116 cells", "assay_type": "cell-based, human", "conditions": "FIG. 2A", "protocol": "Cells were collected and protein concentration was quantified by the Bio-Rad protein assay prior to SDS-PAGE. Proteins were transferred to a PVDF membrane (Immobilon-P, Millipore Corporation, Bedford, Mass.) by a semi-dry transfer apparatus (Bio-Rad Laboratories, Hercules, Calif.). The membranes with transferred proteins were blotted with 10% W/V non-fat dry milk and then incubated with the primary antibody and subsequently secondary antibodies, which were labelled by horseradish peroxidase, or infrared dyes (IR). Signals were visualized by either ECL (Amersham Pharmacia Biotech, England, UK) and exposed to an X-ray film, or scanned by the Odyssey Infared Imaging System (LI-COR Biosciences, Lincoln, Nebr.). Anti-p53, DO-1, was from Santa Cruz biotechnology, Inc. (Santa Cruz, Calif.), anti-p73 (AB-1) and anti-p21 (AB-1) were obtained from Calbiochem (San Diego, Calif.). Anti-ser20 of p53 Cell were obtained from Signaling Technology (Danvers, Mass.) and anti-DR5 antibody was obtained from Cayman Chemical (Ann Arbor, Mich.).\nThe chemical library screening was directed at restoring “p53 responses” in p53-deficient cells. The small molecules identified by the cell-based screening procedure appeared to be able to restore p53 responses in p53-deficient colon tumors and to eliminate viable cells. Their function was further tested on wild-type p53-expressing and p53-knockout HCT116 colon adenocarcinoma cell lines. A number of candidate modulators of signaling by the p53 family appeared to induce expression of p53 target genes such as p21 or DR5(13) either with or without stabilizing p53 protein in HCT116 cells (FIG. 2A)."}, "HCT116/p53^+/+ cells": {"system": "HCT116/p53^+/+ cells", "assay": "Flow cytometry cell cycle profile, HCT116/p53(+/+)", "assay_type": "cell-based, human", "conditions": "#17 200 μM, #23 10 μM", "protocol": "(§1) FIGS. 3A-3F show: Structures (A) of isolated compounds and summary of their effects on the p53 family and transcriptional targets (B). Cell cycle profiles of HCT/p53(+/+) and HCT/p53(−/−) in response to treatment by selected compounds (C-E). The dose of #17 was 200 μM and for #23 it was 10 μM. F, p73 protein levels were elevated in HCT116/p53(−/−) cells in response to treatment by selected compounds at various concentrations as indicated;\n(§2) Adherent cells in a 6-well plate were trypsinized and collected in 15 ml centrifuge tubes to which were added the originally floating cells. The collected cells were ethanol-fixed and stained with propidium iodide (Sigma, St. Louis, Mo.). The DNA content of the stained cells was then measured using an Epics Elite flow cytometer (Beckman-Coulter, Fullerton, Calif.).\n(§3) The ability of selected compounds from the chemical library screen to induce apoptosis of human colon tumor cells and the dependence of their effects on endogenous p53 status was further evaluated."}, "HCT116/p53^−/− cells": {"system": "HCT116/p53^−/− cells", "assay": "Flow cytometry cell cycle profile, HCT116/p53(-/-)", "assay_type": "cell-based, human", "conditions": "for sub-G1 peak (apoptosis): HCT116/p53^−/−, #17 200 μM, #23 10 μM", "protocol": "as §1, §2, §3"}, "[2]": {"system": "p73 in HCT116/p53^−/− cells", "assay": "Effect of p73 knockdown (si-p73 retrovirus) on compound-induced p53-responsive transcriptional activity", "assay_type": "cell-based, human", "conditions": "retrovirus mediated si-p73, HCT116/p53^−/− cells, FIG. 5D", "protocol": "FIGS. 5A-5D show p53 transcriptional activity is induced in DLD1 xenografts and effects of knockdown of p73 by siRNA on drug-induced transcriptional activity. DLD1/PG13 cells were inoculated subcutaneously with 5 million cells. At 24 hours later mice were treated with selected compounds (100 mg/kg for #1, 50 mg/kg for #14 and #17, and 10 mg/kg for #23), and subsequently bioluminescence imaging was carried out after 16 hours. Two weeks later, tumor masses were weighed. A, bioluminescence imaging of p53 transcriptional activity induced in vivo. B, calculated fold-induction of p53 transcriptional activity. C, inhibition of tumor growth by selected compounds. D, effects of si-TAp73 on the transcriptional activity induced by selected compounds;\npBS/U6 vector containing TAp73 RNAi were kindly provided by Leif W. Ellisen (20), Harvard Medical School, from which the expression cassette was removed and recombined to pSIREN-RetroQ (Clontech Laboratories, Inc. Mountain View, Calif.), which was reconstructed to express a blasticidin-resistant marker.\nThe questioned whether the p53 family member p73 is involved in the p53-responsive transcriptional activity induced by the compounds identified was then tested. p63, the other p53 family member, was not tested, because the TA form of p63 is rarely expressed in malignant and normal tissues except for germ cells of the ovary and testis."}, "γH2AX": {"system": "γH2AX", "assay": "γH2AX test (DNA damage signaling)", "assay_type": "cell-based", "conditions": "after treatment"}, "[3]": {"system": "HCT116/p53(−/−) xenografts", "assay": "In vivo anti-tumor assay, HCT116/p53(-/-) xenografts in Balb/c nude mice", "conditions": "intra-peritoneal, #1 100 mg/kg, #14 50 mg/kg, #23 10 mg/kg; 7 days after treatment", "protocol": "Balb/c nude mice were inoculated subcutaneously with 2 million HCT116/p53(−/−) cells in Matrigel on each flank. 6 mice were used in each group, in each of the two experiments. When the tumor mass reached about 3-5 mm, mice were treated with the compounds alone or following a single dose of TRAIL at 100 μg/mouse in experiment 1. At 7 days after treatment, mice were sacrificed and the tumor masses were weighted. The doses used were 100 mg/kg for #1, 50 mg/kg for #14, and 10 mg/kg for #23;\nBalb/c nude mice (Charles River Laboratories, Wilmington, Mass.) were inoculated subcutaneously with 2 million HCT116/p53(−/−) cells in an equal volume of Matrigel. When tumor masses reached about 3-5 mm in diameter, mice were treated with the compounds alone by intraperitoneal injection or following a single intravenous dose of TRAIL at 100 μg/mouse. At 7 days after treatment, mice were sacrificed and the tumor masses were weighed. DLD1/PG13 cells were inoculated subcutaneously with 5 million cells. At 24 hours later mice were treated with selected compounds, and subsequently bioluminescence imaging was carried out after 16 hours as previously described [Wang, W. & El-Deiry, W. S. (2003) Cancer Biol Ther 2, 196-202].\nCompounds #1, #14, #17, and #23 were tested in colon-tumor xenograft-bearing mice in order to evaluate their toxicities and potential anti-tumor effects (FIG. 4). […] The initial doses were chosen below maximal tolerated doses based on the NCI DTP toxicology databases for chemical compound testing in vivo so that mice would survive drug administration and allow subsequent evaluation of anti-tumor effects. p53-null HCT116 xenografts were first tested to document anti-tumor effects in p53-deficient tumors and an experiment to simulate therapy of established tumors was designed. A total of 2×10^6 p53-null HCT116 cells were implanted on opposite flanks subcutaneously in each of 6 nude mice in each group. When tumor masses grew to about 3-5 mm in diameter, drugs were administered intra-peritoneally (#1: 100 mg/kg; #14: 50 mg/kg; #23: 10 mg/kg), and on the next day additional groups received intravenous TRAIL (15) (100 μg/mice via the tail vein). Tumor weights were determined at 7 days later. […] Nonetheless in the future it may be possible to modify the structure of #17 or identify doses where synergistic interactions with TRAIL may be observed."}},
  "note": "“Also recorded” adds a separate entry of the source.",
  "data": [
    {"smiles": "COc1cccc2c1C(=N)c1c(O)c3c(c(O)c1C2=O)C[C@@](O)(C(C)=O)C[C@@H]3O[C@H]1C[C@H](N)[C@H](O)[C@H](C)O1", "note": "[#23]", "values": [
      {"measurement": "p53 protein expression", "setting": "[1]", "result": "increase p53 expression; also recorded: significantly increased p53 protein levels"},
      {"measurement": "sub-G1 peak (apoptosis)", "setting": "HCT116/p53^+/+ cells", "result": "induced a sub-G1 peak characteristic of apoptosis"},
      {"measurement": "sub-G1 peak (apoptosis)", "setting": "HCT116/p53^−/− cells", "result": "induced a sub-G1 peak characteristic of apoptosis"},
      {"measurement": "G1 arrest on apoptosis induction", "setting": "HCT116/p53^−/− cells; p53-null HCT116 cells, compared with wild-type p53-expressing HCT116", "result": "greatly reduced G1 arrest"},
      {"measurement": "compound-induced p53-responsive transcriptional activity after knockdown of p73", "setting": "[2]", "result": "suppressed"},
      {"measurement": "γH2AX", "setting": "γH2AX", "result": "positive"},
      {"measurement": "anti-tumor effect (tumor weights)", "setting": "[3]", "result": "anti-tumor effects were observed"}
    ]},
    {"smiles": "CO[C@H]1[C@@H](O)[C@@H](C)O[C@H](O[C@H]2[C@H](Oc3cccc4c(O)c5c(=O)oc6ccc(C)c7c(=O)oc(c34)c5c67)O[C@H](C)[C@H](O)[C@@H]2O)[C@@H]1O", "note": "[#1]", "values": [
      {"measurement": "p53 protein expression", "setting": "[1]", "result": "increase p53 expression; also recorded: significantly increased p53 protein levels"},
      {"measurement": "sub-G1 peak (apoptosis)", "setting": "HCT116/p53^+/+ cells", "result": "induced a sub-G1 peak characteristic of apoptosis"},
      {"measurement": "sub-G1 peak (apoptosis)", "setting": "HCT116/p53^−/− cells", "result": "induced a sub-G1 peak characteristic of apoptosis"},
      {"measurement": "compound-induced p53-responsive transcriptional activity after knockdown of p73", "setting": "[2]", "result": "suppressed"},
      {"measurement": "γH2AX", "setting": "γH2AX", "result": "not"},
      {"measurement": "anti-tumor effect (tumor weights)", "setting": "[3]", "result": "anti-tumor effects were observed"}
    ]},
    {"smiles": "COc1cccc2c1C(=O)c1c(O)c3c(c(O)c1C2=O)CC(O)(/C(C)=N/O)CC3OC1CC(N)C(O)C(C)O1", "note": "(stereo not shown) [#14]", "values": [
      {"measurement": "p53 protein expression", "setting": "[1]", "result": "increase p53 expression; also recorded: significantly increased p53 protein levels"},
      {"measurement": "sub-G1 peak (apoptosis)", "setting": "HCT116/p53^+/+ cells", "result": "induced a sub-G1 peak characteristic of apoptosis"},
      {"measurement": "sub-G1 peak (apoptosis)", "setting": "HCT116/p53^−/− cells", "result": "induced a sub-G1 peak characteristic of apoptosis"},
      {"measurement": "compound-induced p53-responsive transcriptional activity after knockdown of p73", "setting": "[2]", "result": "suppressed"},
      {"measurement": "γH2AX", "setting": "γH2AX", "result": "positive"},
      {"measurement": "anti-tumor effect (tumor weights)", "setting": "[3]", "result": "anti-tumor effects were observed"}
    ]}
  ]
}
